Measured values published in patent publication US8022617B2, “Organic compound, charge-transporting material, composition for charge-transporting material and organic electroluminescent device” (Mitsubishi Chemical Corporation, priority 2005, dated 2011).

Test: Solubility in toluene
Format: physicochemical
Details: solvent toluene
From the text: As described below, an aromatic hydrocarbon is preferred as a solvent contained in a composition for charge-transporting material. Toluene is a typical aromatic hydrocarbon and is used as an index of the solubility of the organic compound (charge-transporting material) in the present invention.

With `O=c1n(-c2cccc(-n3c4ccccc4c4ccccc43)c2)c2ccccc2n1-c1cccc(-n2c3ccccc3c3ccccc32)c1` [Target Compound 4] the “dissolved in toluene in an amount of” value was no less than 3 percent by weight.
With `O=c1n(-c2ccc(N(c3ccccc3)c3ccc(-c4ccccc4)cc3)cc2)c2ccccc2n1-c1ccc(N(c2ccccc2)c2ccc(-c3ccccc3)cc2)cc1` [Target Compound 5] the “dissolved in toluene in an amount of” value was no less than 5.0 percent by weight.
In the case of `O=c1n(-c2cccc(-c3ccccc3)c2)c2ccccc2n1-c1cccc(-c2ccccc2)c1` [Target Compound 6], the “dissolved in toluene in an amount of” value is reported as no less than 5.0 percent by weight.
In the case of `O=c1n(-c2cccc(-n3c4ccccc4c4ccncc43)c2)c2ccccc2n1-c1cccc(-n2c3ccccc3c3ccncc32)c1` [Target Compound 12], the “dissolved in toluene in an amount of” value is reported as no less than 3 percent by weight.
With `O=c1n(-c2cccc(-n3c4ccccc4c4ccccc43)c2)c2cccnc2n1-c1cccc(-n2c3ccccc3c3ccccc32)c1` [Target Compound 16] the “dissolved in toluene in an amount of” value was no less than 3 percent by weight.
